In brackets after ≈: the same amount, converted by molar mass. Where two headings read alike, the source gives them in different places. Non-standard residues stand in square brackets, D forms with d. Residues, ends and D or L forms follow the SMILES beside them.
Key:
Format in all cases: cell-based, Staphylococcus aureus
[1] = tested on: S. aureus strains; experiment: Inhibition of bacterial surface attachment (crystal violet); conditions: MSSA-2; 1/8MIC; control 2.061±0.01
Method: To investigate the inhibitory effect of KLK and mKLK peptides on bacterial surface attachment and biofilm formation, the bacterial suspension in TSB with a concentration of 10^7 CFU/ml was prepared from overnight culture. An aliquot of 100 μl of the bacterial suspension was added to wells of 96-well plates containing 100 μl of the peptides solution with concentrations of 1×, 1/2× and 1/4× MIC, resulting in the final peptides concentrations of 1/2×, 1/4× and 1/8× MIC. To investigate the inhibitory effect of the peptides on surface attachment the incubation was performed at 37 °C for 2 h and to evaluate their inhibitory activity on biofilm formation the incubation was performed at 37 °C for 24 h. The wells containing only TSB medium were used as negative controls. After incubation, the contents of the wells were removed and washed three times with PBS and the wells were stained with 200 μl of 0.1% crystal violet for 20 min. The plates were washed again and excess dye was removed. A volume of 200 μl of 95% ethanol was added to each well for 20 min and absorbance was measured at 570 nm by a microplate reader.

[2] = tested on: preformed S. aureus biofilms
Method: The eradicative activity of KLK and mKLK peptides against preformed S. aureus biofilms was evaluated by determining MBEC, as previously described. The 24-h biofilms developed in TSB in a 96-well plate were washed three times with 200 μl PBS solution. Concentrations of the peptides ranging from 2 to 1024 µg/ml were prepared. A volume of 100 μl of each concentration was added to a corresponding well, and plates were incubated for 18–20 h at 37 °C. Then, wells were washed with sterile PBS solution, and 100 μl of PBS solution was added. The wells were thoroughly scraped with a sterile pipette tip, vortexed and sonicated to release the biofilm cells from the well surface. Subsequently, 10 μl of well contents were plated on MHA. Colonies were counted after 20 h at 37 °C. The MBEC was defined as the lowest concentration of peptide that inhibited bacterial regrowth.

[3] = tested on: S. aureus isolates; experiment: microbe, parasite or virus in culture
Method: (§1) Minimum inhibitory concentrations (MIC) of KLK, mKLK, and vancomycin were determined using microdilution broth assay according to clinical and laboratory standards institute (CLSI) guidelines with some modifications. Briefly, overnight cultures were diluted in Muller-Hinton broth (MHB; Merck, Germany) to achieve a final density of 5 × 10^5 CFU/ml. A volume of 100 μl of bacterial suspension was added to wells of sterile 96-well plates containing 100 μl of two-fold peptide dilutions, ranging from 0.25 to 256 µg/ml. Vancomycin was used as a positive control in this assay. […] MBC was determined by removing samples from wells with no visible growth, serially diluting, and plating on Mueller Hinton (MH) agar plates for CFU counting.

[4] = tested on: 24-h S. aureus biofilms; experiment: Biofilm dispersal activity (crystal violet)
Method: To investigate the dispersal activity of KLK and mKLK peptide, the 24-h S. aureus biofilms were prepared in TSB medium in the 96-well plates. Then, the final concentrations of 1×, 2×, and 4 × MIC were prepared for each peptide in the wells. After incubation at 37 °C for 12 h, plates were washed with PBS three times to discard unattached bacteria. Subsequently, plates were stained with 250 μl of 0.5% crystal violet for 20 min at room temperature. Then, the wells were washed and 250 μl 33% acetic acid was added to them. Finally, the absorbance was measured at 570 nm using a microplate reader.

[5] = tested on: S. aureus isolates
Method: as §1

**Q.** Which results are given for `CC(C)C[C@@H](NC(=O)[C@H](N)Cc1c[nH]c2ccccc12)C(=O)N[C@H](Cc1c[nH]c2ccccc12)C(=O)N[C@H](C)C(=O)N[C@H](CC(C)C)C(=O)N[C@H](CC(C)C)C(=O)N[C@H](CCCCN)C(=O)N[C@H](CC(C)C)C(=O)N[C@H](CC(C)C)C(=O)N[C@H](CCCCN)C(=O)N[C@H](CC(C)C)C(=O)N[C@H](CCCCN)C(N)=O` [mKLK] (H-[dW][dL][dW][dA][dL][dL][dK][dL][dL][dK][dL][dK]-NH2; N-terminus assumed)?
**A.** crystal violet absorbance at 570 nm, bacterial attachment, Mean±SD [1]: 1.576±0.46; MBEC ([2]; ATCC25923): 64 µg/mL; MBEC ([2]; MRSA-1): 64 µg/mL; MBEC ([2]; MRSA-2): 128 µg/mL; MBEC ([2]; MRSA-3): 64 µg/mL; MBEC ([2]; MSSA-1): 32 µg/mL; MBEC ([2]; MSSA-2): 32 µg/mL; MBEC, range over isolates ([2]; preformed biofilms): 32 to 128 µg/mL; MIC ([3]; ATCC25923): 4 µg/mL (≈ 2.62 µM); MIC ([3]; MRSA clinical isolates, read-out: MIC): 8 µg/mL (≈ 5.25 µM); MIC ([3]; MRSA-1): 8 µg/mL (≈ 5.25 µM); MIC ([3]; MRSA-2): 8 µg/mL (≈ 5.25 µM); MIC ([3]; MRSA-3): 8 µg/mL (≈ 5.25 µM); MIC ([3]; MSSA-1): 4 µg/mL (≈ 2.62 µM); MIC ([3]; MSSA-2): 4 µg/mL (≈ 2.62 µM); MIC ([3]; three MRSA isolates): 8 µg/mL (≈ 5.25 µM); MIC ([3]; two MSSA isolates): 4 µg/mL (≈ 2.62 µM); crystal violet absorbance at 570 nm, dispersal activity, Mean±SD ([4]; ATCC25923, 1MIC, control 2.79±0.03): 1.277±0.01; crystal violet absorbance at 570 nm, dispersal activity, Mean±SD ([4]; ATCC25923, 2MIC, control 2.79±0.03): 0.790±0.15; crystal violet absorbance at 570 nm, dispersal activity, Mean±SD ([4]; ATCC25923, 4MIC, control 2.79±0.03): 0.35±0.01; crystal violet absorbance at 570 nm, dispersal activity, Mean±SD ([4]; MRSA-1, 1MIC, control 1.903±0.003): 1.271±0.02; crystal violet absorbance at 570 nm, dispersal activity, Mean±SD ([4]; MRSA-1, 2MIC, control 1.903±0.003): 0.926±0.07; crystal violet absorbance at 570 nm, dispersal activity, Mean±SD ([4]; MRSA-1, 4MIC, control 1.903±0.003): 0.587±0.28; crystal violet absorbance at 570 nm, dispersal activity, Mean±SD ([4]; MRSA-2, 1MIC, control 2.014±0.01): 1.349±0.04; crystal violet absorbance at 570 nm, dispersal activity, Mean±SD ([4]; MRSA-2, 2MIC, control 2.014±0.01): 0.929±0.09; crystal violet absorbance at 570 nm, dispersal activity, Mean±SD ([4]; MRSA-2, 4MIC, control 2.014±0.01): 0.579±0.08; crystal violet absorbance at 570 nm, dispersal activity, Mean±SD ([4]; MRSA-3, 1MIC, control 1.255±0.29): 0.637±0.16; crystal violet absorbance at 570 nm, dispersal activity, Mean±SD ([4]; MRSA-3, 2MIC, control 1.255±0.29): 0.5±0.11; crystal violet absorbance at 570 nm, dispersal activity, Mean±SD ([4]; MRSA-3, 4MIC, control 1.255±0.29): 0.296±0.009; crystal violet absorbance at 570 nm, dispersal activity, Mean±SD ([4]; MSSA-1, 1MIC, control 1.787±0.1): 1.063±0.09; crystal violet absorbance at 570 nm, dispersal activity, Mean±SD ([4]; MSSA-1, 2MIC, control 1.787±0.1): 0.675±0.02; crystal violet absorbance at 570 nm, dispersal activity, Mean±SD ([4]; MSSA-1, 4MIC, control 1.787±0.1): 0.378±0.02; crystal violet absorbance at 570 nm, dispersal activity, Mean±SD ([4]; MSSA-2, 1MIC, control 2.116±0.006): 0.992±0.01; crystal violet absorbance at 570 nm, dispersal activity, Mean±SD ([4]; MSSA-2, 2MIC, control 2.116±0.006): 0.637±0.20; crystal violet absorbance at 570 nm, dispersal activity, Mean±SD ([4]; MSSA-2, 4MIC, control 2.116±0.006): 0.207±0.01; MBC ([5]; ATCC25923): 4 µg/mL (≈ 2.62 µM); MBC ([5]; MRSA-1): 8 µg/mL (≈ 5.25 µM); MBC ([5]; MRSA-2): 8 µg/mL (≈ 5.25 µM); MBC ([5]; MRSA-3): 8 µg/mL (≈ 5.25 µM); MBC ([5]; MSSA-1): 4 µg/mL (≈ 2.62 µM); MBC ([5]; MSSA-2): 4 µg/mL (≈ 2.62 µM)

— article PMC10817945, “Design of a novel analogue peptide with potent antibiofilm activities against Staphylococcus aureus based upon a sapecin B-derived peptide” (Scientific Reports, 2024)
